Assays:
Type in all cases: in vivo, rat
male Sprague-Dawley rats [1] = assay: Hind limb weight bearing (incapacitance meter, % WL) in thermal burn pain model; conditions: for % WL (mean ± S.E.M.), percentage of weight borne on the burn-injured left hind paw: rat burn injury 55° C. 24 s
Experimental: (§1) Test Animals: Each experiment used male Sprague-Dawley rats weighing between 190-260 g at the time of thermal burn injury. The rats were housed two per cage, and were allowed to acclimate to their environment for at least six days before testing began. The rats had free access to food and water at all times, except during testing and prior to oral (PO) administration of a test compound, when food was removed about 16 hours before dosing. The rats were divided into treatment groups, and one of the following compounds was administered to each group at the dose and by the route of administration indicated in Tables 5.2A to 5.2C, 5.3A and 5.3B, and 5.4A and 5.4B: ketorolac (Sigma-Aldrich, St. Louis, Mo.), AMG 517 (selective TRPV1 antagonist described in Em. Doherty et al., “Novel vanilloid receptor-1 antagonists:2. Structure-activity relationships of 4-oxopyrimidines leading to the selection of a clinical candidate,” J Med Chem 50:3515-3527 (2007).) (Purdue Pharma L. P., Cranbury, N.J.), indomethacin (Alexis Biochemicals, Farmingdale, N.Y.), gabapentin (Bosche Scientific, New Brunswick, N.J.), or (S)-3-chloro-5-(1,2-dihydroxyethyl)-N-(5-(trifluoromethyl)pyridin-2-yl)-5′,6′-dihydro-[2,4′-bipyridine]-1′(2′H)-carboxamide (Compound 1). The control groups were administered the vehicle for the compound of formula (I). The volume of administration for PO treatment was 5 ml/kg, and was the same for all treatment groups. Volume of administration for intraperitoneal (i.p.) drug administration was 2 ml/kg.
(§2) To assess the actions of a compound of formula (I) for the treatment or prevention of burn pain, a model of thermal burn pain was used. A thermal burn injury was induced under isofluorane/O2 inhalation anesthesia. To assess mechanical hyperalgesia and weight bearing, a thermal injury was produced by immersing the left hind paw into water maintained at 55° C. for 24 seconds. The left hind paw of non-injured control animals was immersed in 22° C. water for 24 seconds. To assess thermal hyperalgesia, a thermal injury was produced by immersing the left hindpaw into water maintained at 50° C. for 48 seconds; the left hind-paw of non-injured control animals was immersed in 22° C. water for 48 seconds. The animals were assessed for response to noxious mechanical stimuli by determining PWT for mechanical hyperalgesia, weight bearing difference between the injured or non-injured side, or response to noxious thermal stimuli by determining PWL for thermal hyperalgesia, all as described below, prior to drug administration (baseline), then again at 1, 3 and 5 hours after induction of burn injury.
A commercially available incapacitance meter was used to determine the weight distribution on the two hind paws of the animal (Linton Incapacitance Tester (Linton Instrumentation, Norfolk, UK)). The weight bearing difference (WBD) between the injured and non-injured hindpaw was measured. The animal was placed in the testing chamber that allows the animal to stand normally, distributing its body weight on the hind limbs for the test. Each hind paw was positioned on a separate pressure sensitive pad, which independently measures the pressure applied by each limb. The device continuously collects data after either a force threshold has been exceeded, or the investigator depresses the start pad. Rats were allowed to acclimate when placed on the apparatus, and when they were stationary, the force exerted was then continuously monitored for 3 s. The endpoint was the amount of pressure applied to each limb over time. Three readings were taken for each rat at each time point, and the average used for data analysis. WBD was expressed as “% WL”, i.e. the percentage of weight borne on the burn-injured left hind paw, using the following formula: […]
where WLP is the weight on the left hind paw and WRP is the weight on the right (untreated) hind paw. The 50% value of % WL corresponds to an equal weight distribution across both hind paws. […]

male Sprague-Dawley rats [2] = assay: Paw pressure assay, mechanical hyperalgesia (PWT) in thermal burn pain model; conditions: for % Decrease from Baseline (mean ± S.E.M.) of Paw Withdrawal Threshold / Paw Withdrawal Threshold (g) (mean ± S.E.M.): rat burn injury 55° C. 24 s
Experimental: as §1, §2
The paw pressure assay was used to assess mechanical hyperalgesia. For this assay, hind paw withdrawal thresholds (PWT) to a noxious mechanical stimulus were determined using an analgesimeter (Model 7200, commercially available from Ugo Basile of Italy) as described in C. Stein, “Unilateral Inflammation of the Hindpaw in Rats as a Model of Prolonged Noxious Stimulation: Alterations in Behavior and Nociceptive Thresholds,” Pharmacol. Biochem. and Behavior 31:451-455 (1988). The rat's paw was placed on a small platform, and weight was applied in a graded manner up to a maximum of 250 grams. The endpoint was taken as the weight at which the paw was completely withdrawn. PWT was determined once for each rat at each time point, wherein the affected (ipsilateral; same side as the injury) rear paw was tested. […] All drug treatment groups were compared to the vehicle control group (i.e. injured, administered only the vehicle).

male Sprague-Dawley rats [3] = assay: Plantar test, thermal hyperalgesia (PWL) in thermal burn pain model; conditions: for % Change from Baseline (mean ± S.E.M.) of Paw Withdrawal Latency / Paw Withdrawal Latency (sec) (mean ± S.E.M.): rat burn injury 50° C. 48 s
Experimental: as §1, §2
The plantar test was used to assess thermal hyperalgesia. For this test, hind paw withdrawal latencies (PWL) to a noxious thermal stimulus were determined using a plantar test apparatus (commercially available from Ugo Basile of Italy) following the technique described by K. Hargreaves et al., “A New and Sensitive Method for Measuring Thermal Nociception in Cutaneous Hyperalgesia,” Pain 32(1):77-88 (1988). The maximum exposure time was set at 32 seconds to avoid tissue damage and any directed paw withdrawal from the heat source is taken as the end point. Three latencies were determined at each time point and averaged.

[4] = 3 mg/kg PO, 1 h after administration
[5] = 3 mg/kg PO, 3 h after administration
[6] = 3 mg/kg PO, 5 h after administration
[7] = 3 mg/kg PO, baseline (prior to drug administration)
[8] = 10 mg/kg PO, 1 h after administration
[9] = 10 mg/kg PO, 3 h after administration
[10] = 10 mg/kg PO, 5 h after administration
[11] = 10 mg/kg PO, baseline (prior to drug administration)
[12] = 30 mg/kg PO, 1 h after administration
[13] = 30 mg/kg PO, 3 h after administration
[14] = 30 mg/kg PO, 5 h after administration
[15] = 30 mg/kg PO, baseline (prior to drug administration)

O=C(Nc1ccc(C(F)(F)F)cn1)N1CC=C(c2ncc([C@H](O)CO)cc2Cl)CC1 [Compound 1, (S)-3-chloro-5-(1,2-dihydroxyethyl)-N-(5-(trifluoromethyl)pyridin-2-yl)-5′,6′-dihydro-[2,4′-bipyridine]-1′(2′H)-carboxamide]
Effect on weight bearing (male Sprague-Dawley rats [1]; rat burn injury): did not significantly affect weight bearing
% WL (mean ± S.E.M.), percentage of weight borne on the burn-injured left hind paw (male Sprague-Dawley rats [1]; [4]): 24.4 ± 4.44%
% WL (mean ± S.E.M.), percentage of weight borne on the burn-injured left hind paw (male Sprague-Dawley rats [1]; [5]): 42.0 ± 4.51%
% WL (mean ± S.E.M.), percentage of weight borne on the burn-injured left hind paw (male Sprague-Dawley rats [1]; [6]): 49.5 ± 3.60%
% WL (mean ± S.E.M.), percentage of weight borne on the burn-injured left hind paw (male Sprague-Dawley rats [1]; [7]): 50.6 ± 0.62%
% WL (mean ± S.E.M.), percentage of weight borne on the burn-injured left hind paw (male Sprague-Dawley rats [1]; [8]): 37.6 ± 2.54%
% WL (mean ± S.E.M.), percentage of weight borne on the burn-injured left hind paw (male Sprague-Dawley rats [1]; [9]): 47.3 ± 1.92%
% WL (mean ± S.E.M.), percentage of weight borne on the burn-injured left hind paw (male Sprague-Dawley rats [1]; [10]): 49.0 ± 2.15%
% WL (mean ± S.E.M.), percentage of weight borne on the burn-injured left hind paw (male Sprague-Dawley rats [1]; [11]): 50.6 ± 0.71%
% WL (mean ± S.E.M.), percentage of weight borne on the burn-injured left hind paw (male Sprague-Dawley rats [1]; [12]): 31.4 ± 3.92%
% WL (mean ± S.E.M.), percentage of weight borne on the burn-injured left hind paw (male Sprague-Dawley rats [1]; [13]): 50.3 ± 2.07%
% WL (mean ± S.E.M.), percentage of weight borne on the burn-injured left hind paw (male Sprague-Dawley rats [1]; [14]): 55.6 ± 3.03%
% WL (mean ± S.E.M.), percentage of weight borne on the burn-injured left hind paw (male Sprague-Dawley rats [1]; [15]): 50.3 ± 0.53%
% Decrease from Baseline (mean ± S.E.M.) of Paw Withdrawal Threshold (male Sprague-Dawley rats [2]; [4]): 59 ± 1.8%
Paw Withdrawal Threshold (g) (mean ± S.E.M.) (male Sprague-Dawley rats [2]; [4]): 97 ± 4.5 g
% Decrease from Baseline (mean ± S.E.M.) of Paw Withdrawal Threshold (male Sprague-Dawley rats [2]; [5]): 63.2 ± 2.1^ %
Paw Withdrawal Threshold (g) (mean ± S.E.M.) (male Sprague-Dawley rats [2]; [5]): 88 ± 5.6 g
% Decrease from Baseline (mean ± S.E.M.) of Paw Withdrawal Threshold (male Sprague-Dawley rats [2]; [6]): 63 ± 1.4%
Paw Withdrawal Threshold (g) (mean ± S.E.M.) (male Sprague-Dawley rats [2]; [6]): 90 ± 4.0 g
Paw Withdrawal Threshold (g) (mean ± S.E.M.) (male Sprague-Dawley rats [2]; [7]): 240 ± 8.4 g
% Decrease from Baseline (mean ± S.E.M.) of Paw Withdrawal Threshold (male Sprague-Dawley rats [2]; [8]): 55 ± 3.2%
Paw Withdrawal Threshold (g) (mean ± S.E.M.) (male Sprague-Dawley rats [2]; [8]): 108 ± 73^ g
% Decrease from Baseline (mean ± S.E.M.) of Paw Withdrawal Threshold (male Sprague-Dawley rats [2]; [9]): 60 ± 3.2%
Paw Withdrawal Threshold (g) (mean ± S.E.M.) (male Sprague-Dawley rats [2]; [9]): 97 ± 8.5 g
% Decrease from Baseline (mean ± S.E.M.) of Paw Withdrawal Threshold (male Sprague-Dawley rats [2]; [10]): 66 ± 2.4%
Paw Withdrawal Threshold (g) (mean ± S.E.M.) (male Sprague-Dawley rats [2]; [10]): 83 ± 5.4 g
Paw Withdrawal Threshold (g) (mean ± S.E.M.) (male Sprague-Dawley rats [2]; [11]): 243 ± 6.5 g
% Decrease from Baseline (mean ± S.E.M.) of Paw Withdrawal Threshold (male Sprague-Dawley rats [2]; [12]): 37 ± 2.5 %
Paw Withdrawal Threshold (g) (mean ± S.E.M.) (male Sprague-Dawley rats [2]; [12]): 153 ± 4.4 g
% Decrease from Baseline (mean ± S.E.M.) of Paw Withdrawal Threshold (male Sprague-Dawley rats [2]; [13]): 42 ± 4.5 %
Paw Withdrawal Threshold (g) (mean ± S.E.M.) (male Sprague-Dawley rats [2]; [13]): 141 ± 9.0 g
% Decrease from Baseline (mean ± S.E.M.) of Paw Withdrawal Threshold (male Sprague-Dawley rats [2]; [14]): 61 ± 2.0^ %
Paw Withdrawal Threshold (g) (mean ± S.E.M.) (male Sprague-Dawley rats [2]; [14]): 95 ± 4.5 g
Paw Withdrawal Threshold (g) (mean ± S.E.M.) (male Sprague-Dawley rats [2]; [15]): 244 ± 6.0^ g
Effect on mechanical hyperalgesia associated with the burn injury (male Sprague-Dawley rats [2]; rat, 30 mg/kg): significantly reduced mechanical hyperalgesia
Effect on thermal hyperalgesia (male Sprague-Dawley rats [3]; rat burn injury): did not significantly affect thermal hyperalgesia
% Change from Baseline (mean ± S.E.M.) of Paw Withdrawal Latency (male Sprague-Dawley rats [3]; [4]): −45.8 ± 14.53%
Paw Withdrawal Latency (sec) (mean ± S.E.M.) (male Sprague-Dawley rats [3]; [4]): 8.1 ± 0.77 s
% Change from Baseline (mean ± S.E.M.) of Paw Withdrawal Latency (male Sprague-Dawley rats [3]; [5]): −34.4 ± 7.57%
Paw Withdrawal Latency (sec) (mean ± S.E.M.) (male Sprague-Dawley rats [3]; [5]): 9.2 ± 0.99 s
% Change from Baseline (mean ± S.E.M.) of Paw Withdrawal Latency (male Sprague-Dawley rats [3]; [6]): −35.7 ± 15.81%
Paw Withdrawal Latency (sec) (mean ± S.E.M.) (male Sprague-Dawley rats [3]; [6]): 9.9 ± 0.70 s
Paw Withdrawal Latency (sec) (mean ± S.E.M.) (male Sprague-Dawley rats [3]; [7]): 14.5 ± 1.22 s
% Change from Baseline (mean ± S.E.M.) of Paw Withdrawal Latency (male Sprague-Dawley rats [3]; [8]): −36.0 ± 11.15%
Paw Withdrawal Latency (sec) (mean ± S.E.M.) (male Sprague-Dawley rats [3]; [8]): 8.9 ± 1.08 s
% Change from Baseline (mean ± S.E.M.) of Paw Withdrawal Latency (male Sprague-Dawley rats [3]; [9]): −19.7 ± 10.24%
Paw Withdrawal Latency (sec) (mean ± S.E.M.) (male Sprague-Dawley rats [3]; [9]): 12.0 ± 0.66 s
% Change from Baseline (mean ± S.E.M.) of Paw Withdrawal Latency (male Sprague-Dawley rats [3]; [10]): −22.5 ± 9.23%
Paw Withdrawal Latency (sec) (mean ± S.E.M.) (male Sprague-Dawley rats [3]; [10]): 11.3 ± 0.98 s
Paw Withdrawal Latency (sec) (mean ± S.E.M.) (male Sprague-Dawley rats [3]; [11]): 14.4 ± 1.17 s
% Change from Baseline (mean ± S.E.M.) of Paw Withdrawal Latency (male Sprague-Dawley rats [3]; [12]): −34.3 ± 6.08%
Paw Withdrawal Latency (sec) (mean ± S.E.M.) (male Sprague-Dawley rats [3]; [12]): 7.8 ± 0.73 s
% Change from Baseline (mean ± S.E.M.) of Paw Withdrawal Latency (male Sprague-Dawley rats [3]; [13]): −15.7 ± 10.29%
Paw Withdrawal Latency (sec) (mean ± S.E.M.) (male Sprague-Dawley rats [3]; [13]): 11.5 ± 1.04 s
% Change from Baseline (mean ± S.E.M.) of Paw Withdrawal Latency (male Sprague-Dawley rats [3]; [14]): −16.6 ± 8.94%
Paw Withdrawal Latency (sec) (mean ± S.E.M.) (male Sprague-Dawley rats [3]; [14]): 11.2 ± 0.81 s
Paw Withdrawal Latency (sec) (mean ± S.E.M.) (male Sprague-Dawley rats [3]; [15]): 13.7 ± 0.92 s
